In US20240360154A1, “AROYL SUBSTITUTED TRICYCLIC COMPOUND, PREPARATION METHOD THEREFOR AND USE THEREOF” (GENFLEET THERAPEUTICS (SHANGHAI) INC., priority 2020, published 2024):

Assays:
[1] = molecular target: BTK (Homo sapiens (Human), UniProt Q06187); assay: BTK enzyme experiment (ADP-Glo kinase assay); assay type: biochemical; settings: 10 nM BTK, ATP 125 μM, Poly(Glu4, Tyr1), 90 minutes at 20° C.; read-out: BTK(WT) IC50
Outline: (§1)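 Wild-type or C481S BTK, added as 2× solution at 10 nM, preincubated 10 min with 3-fold compound dilutions in 50 mM HEPES pH 7.5, 10 mM MgCl2, 2 mM DTT, 0.0015% Brij-35. ADP-Glo luminescence norm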

[2] = molecular target: BTK (C481S) (Homo sapiens (Human), UniProt Q06187, C481S); assay: BTK C481S enzyme experiment (ADP-Glo kinase assay); assay type: biochemical; settings: 10 nM BTK C481S, ATP 125 μM, Poly(Glu4, Tyr1), 90 minutes at 20° C.
Chain of BTK (C481S) (Q06187 whole entry C481S): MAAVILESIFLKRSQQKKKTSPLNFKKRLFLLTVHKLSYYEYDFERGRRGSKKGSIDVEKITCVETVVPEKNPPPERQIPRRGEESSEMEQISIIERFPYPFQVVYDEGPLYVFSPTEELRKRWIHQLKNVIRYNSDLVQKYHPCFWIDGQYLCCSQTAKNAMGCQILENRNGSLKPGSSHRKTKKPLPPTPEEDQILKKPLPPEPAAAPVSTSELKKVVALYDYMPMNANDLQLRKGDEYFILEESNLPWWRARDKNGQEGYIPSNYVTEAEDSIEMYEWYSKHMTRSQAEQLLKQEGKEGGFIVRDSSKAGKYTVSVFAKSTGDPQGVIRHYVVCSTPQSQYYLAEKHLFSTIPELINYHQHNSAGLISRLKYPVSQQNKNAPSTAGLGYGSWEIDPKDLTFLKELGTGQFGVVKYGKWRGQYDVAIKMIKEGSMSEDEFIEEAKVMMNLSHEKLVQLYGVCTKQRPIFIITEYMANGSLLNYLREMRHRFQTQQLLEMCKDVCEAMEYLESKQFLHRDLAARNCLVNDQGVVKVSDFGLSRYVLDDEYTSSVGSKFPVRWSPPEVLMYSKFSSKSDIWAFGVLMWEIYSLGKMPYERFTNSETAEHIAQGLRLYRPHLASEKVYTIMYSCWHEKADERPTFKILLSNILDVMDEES
Outline: as §1

[3] = molecular target: p-BTK (WT) (Homo sapiens (Human), UniProt Q06187); assay: p-BTK cell experiment, HEK293 transfected with WT-BTK plasmid (P-BTK Y223 sandwich ELISA); assay type: cell-based; settings: HEK293 cells, compound cultured for two hours
Chain of p-BTK (WT) (Q06187 whole entry): as the sequence (Q06187 whole entry C481S) above, with S481C counted along it
Procedure: (§2) Day 1: HEK293 cells (ADDEXBIO, T0011001) at logarithmic growth phase were taken, digested with enzyme EDTA, collected and counted, and 2E6 cells were inoculated in a 10 cm culture dish and cultured overnight. Day 2: A mixed solution containing 6 μg of WT-BTK/C481S-BTK plasmid and 18 μL of FuGENE HD transfection reagent was prepared by using 1000 μL of Opti-MEM. After standing at room temperature for 10 minutes, the mixed solution was slowly added to the culture dish with a pipettor and cultured overnight. Day 3: The culture dish was taken out, and the cells were digested with enzyme EDTA, collected and counted, and 1E4 cells were inoculated in a 96-well cell culture plate and cultured overnight. A 3.16-fold gradient concentration stock solution of 1000× compound was prepared using DMSO, and placed at room temperature. Day 4: A prepared 1000× compound stock solution was taken, and diluted 200-fold to 5× compound stock solution with culture medium. 5× compound stock solution was added to each cell culture well with a final concentration of 1× compound stock solution and a DMSO content of 0.1%. DMSO was used as an experimental control. After the compound was added and cultured for two hours, the residual culture medium was removed. 100 μL of cell lysis buffer was added to each well, stood on ice for 30 minutes, and ultrasonically lysed with ice water for 5 minutes. After diluting the cell lysate in proportion, 80 μL of the mixture was transfer to an ELISA plate, and 80 μL of cell lysis buffer was added to the blank well. After incubating in an incubator at 37° C. for 2 hours, the plate was taken and the antibody incubation and color development termination operation were completed according to the instructions of Pathscan P-BTK (Y223) Sandwich ELISA Kit (Cell Signaling #23843 CA), and finally the OD value was read. The inhibition rate of the compound (%)=(ODcontrol−ODcompound)/(ODcontrol−ODblank)×100% was calculated. The compound gradient dilution concentration and the corresponding cell proliferation inhibition rate were fit by using Prism 8 four-parameter method, and IC50 value was calculated.

[4] = molecular target: p-BTK (C481S) (Homo sapiens (Human), UniProt Q06187, C481S); assay: p-BTK cell experiment, HEK293 transfected with C481S-BTK plasmid (P-BTK Y223 sandwich ELISA); assay type: cell-based; settings: HEK293 cells, compound cultured for two hours
Chain of p-BTK (C481S) (Q06187 whole entry C481S): as the sequence (Q06187 whole entry C481S) above
Procedure: as §2

[5] = test system: TMD-8 cells; assay: TMD-8 proliferation inhibition experiment; assay type: cell-based; settings: human diffuse large B lymphoma cells, three days incubation
Outline: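 Log-phase cells seeded in 384-well plates (600 TMD-8 in RPMI 1640, 2000 OCI-LY10 in IMDM, both 10% FBS), then exposed one day later to 3-fold compound dilutions at 0.25% DMSO for three days. ADP-Glo luminescence read; inhibition versus DMSO and medium-only blank, IC50 by four-parameter fit.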

Chain of BTK (Q06187 whole entry): as the sequence (Q06187 whole entry C481S) above, with S481C counted along it

| Compound | IC50 [1] [nM] | IC50 [2] [nM] | IC50 [3] [nM] | IC50 [4] [nM] | IC50 ([5]; Homo sapiens, TMD8, 72 h) [nM] | IC50 [5] [nM] |
| --- | --- | --- | --- | --- | --- | --- |
| COC[C@]1(C)Nc2c(cnc3[nH]cc(C(=O)c4ccc(Oc5ccccn5)cc4Cl)c23)NC1=O [Z136, (S)-9-(2-chloro-4-(pyridin-2-yloxy)benzoyl)-2-(methoxymethyl)-2-methyl-1,2,4,7-tetrahydro-3H-pyrrolo[3′,2′:5,6]pyrido[3,4-b]pyrazin-3-one] | 6.7 | 7.6 | 80.5 | 114 | 178 | – |
| CN(C)C1CCC2(C1)Nc1c(cnc3[nH]cc(C(=O)c4ccc(Oc5ccccc5)cc4Cl)c13)NC2=O (stereo not drawn) [Z137] | 12.9 | 10.3 | 50.1 | 49.4 | – | 139 |
| O=C(c1ccc(Oc2ccccc2)cc1Cl)c1c[nH]c2ncc3c(c12)NC1(CCC(N2CCOCC2)C1)C(=O)N3 (stereo not drawn) [Z141, 9′-(2-chloro-4-phenoxybenzoyl)-3-morpholino-4′,7′-dihydrospiro[cyclopentane-1,2′-pyrrolo[3′,2′:5,6]pyrido[3,4-b]pyrazin]-3′(1′H)-one] | 11.5 | 5.1 | 20.5 | 22.4 | 58.4 | – |
| [2H]C([2H])([2H])[C@@]1(COC)Nc2c(cnc3[nH]cc(C(=O)c4ccc(Oc5ccccc5)cc4Cl)c23)NC1=O [Z149, (S)-9-(2-chloro-4-phenoxybenzoyl)-2-(methoxymethyl)-2-(methyl-d3)-1,2,4,7-tetrahydro-3H-pyrrolo[3′,2′:5,6]pyrido[3,4-b]pyrazin-3-one] | 23.5 | 13.2 | 19.3 | 33 | 130 | – |
| COC[C@]1(C)Nc2c(cnc3[nH]cc(C(=O)c4ccc(Oc5ccccc5F)cc4Cl)c23)NC1=O [Z155, (S)-9-(2-chloro-4-(2-fluorophenoxy)benzoyl)-2-(methoxymethyl)-2-methyl-1,2,4,7-tetrahydro-3H-pyrrolo[3′,2′:5,6]pyrido[3,4-b]pyrazin-3-one] | 8.6 | 10.6 | 28 | 48.2 | 87 | – |
| [2H]C([2H])([2H])OC[C@]1(C)Nc2c(cnc3[nH]cc(C(=O)c4ccc(Oc5ccccc5F)cc4Cl)c23)NC1=O [Z160, (S)-9-(2-chloro-4-(2-fluorophenoxy)benzoyl)-2-((methoxy-d3)methyl)-2-methyl-1,2,4,7-tetrahydro-3H-pyrrolo[3′,2′:5,6]pyrido[3,4-b]pyrazin-3-one] | 16.8 | 21.5 | 16.7 | 27.5 | 108 | – |
| [2H]C([2H])([2H])OC[C@]1(C([2H])([2H])[2H])Nc2c(cnc3[nH]cc(C(=O)c4ccc(Oc5ccccc5)cc4Cl)c23)NC1=O [Z161, (S)-9-(2-chloro-4-phenoxybenzoyl)-2-((methoxy-d3)methyl)-2-(methyl-d3)-1,2,4,7-tetrahydro-3H-pyrrolo[3′,2′:5,6]pyrido[3,4-b]pyrazin-3-one] | 10.6 | 12.5 | 17 | 39.2 | 72.8 | – |
| COC[C@]1(C)Nc2c(cnc3[nH]cc(C(=O)c4ccc(Oc5c(F)cccc5OC)cc4Cl)c23)NC1=O [Z168, (S)-9-(2-chloro-4-(2-fluoro-6-methoxyphenoxy)benzoyl)-2-(methoxymethyl)-2-methyl-1,2,4,7-tetrahydro-3H-pyrrolo[3′,2′:5,6]pyrido[3,4-b]pyrazin-3-one] | 4.5 | 6.6 | 3.98 | 7.26 | 22.4 | – |
| COC[C@]1(C)Nc2c(cnc3[nH]cc(C(=O)c4ccc(Oc5cc(F)ccc5OC)cc4Cl)c23)NC1=O [Z169, (S)-9-(2-chloro-4-(5-fluoro-2-methoxyphenoxy)benzoyl)-2-(methoxymethyl)-2-methyl-1,2,4,7-tetrahydro-3H-pyrrolo[3′,2′:5,6]pyrido[3,4-b]pyrazin-3-one] | 8.5 | 9 | 10.2 | 20.1 | 46.9 | – |
